# Experimental data reported in patent US6407094B1, “Glutamate receptor antagonists” (Hoffmann-la Roche Inc., priority 1999, dated 2002).
# Legend:
# rat mGlu2 receptor = biological target: T1, rat mGlu2 receptor (Rattus norvegicus, UniProt P31421); test: [3H]-LY354740 binding on mGlu2 transfected CHO cell membranes
# T1 construct: expressed in transfected cells; host or cells: CHO cells, stably transfected with pcD1mGR2 (pcDNA I-amp), G-418 selected; membranes used
# T1 sequence (P31421 19-872): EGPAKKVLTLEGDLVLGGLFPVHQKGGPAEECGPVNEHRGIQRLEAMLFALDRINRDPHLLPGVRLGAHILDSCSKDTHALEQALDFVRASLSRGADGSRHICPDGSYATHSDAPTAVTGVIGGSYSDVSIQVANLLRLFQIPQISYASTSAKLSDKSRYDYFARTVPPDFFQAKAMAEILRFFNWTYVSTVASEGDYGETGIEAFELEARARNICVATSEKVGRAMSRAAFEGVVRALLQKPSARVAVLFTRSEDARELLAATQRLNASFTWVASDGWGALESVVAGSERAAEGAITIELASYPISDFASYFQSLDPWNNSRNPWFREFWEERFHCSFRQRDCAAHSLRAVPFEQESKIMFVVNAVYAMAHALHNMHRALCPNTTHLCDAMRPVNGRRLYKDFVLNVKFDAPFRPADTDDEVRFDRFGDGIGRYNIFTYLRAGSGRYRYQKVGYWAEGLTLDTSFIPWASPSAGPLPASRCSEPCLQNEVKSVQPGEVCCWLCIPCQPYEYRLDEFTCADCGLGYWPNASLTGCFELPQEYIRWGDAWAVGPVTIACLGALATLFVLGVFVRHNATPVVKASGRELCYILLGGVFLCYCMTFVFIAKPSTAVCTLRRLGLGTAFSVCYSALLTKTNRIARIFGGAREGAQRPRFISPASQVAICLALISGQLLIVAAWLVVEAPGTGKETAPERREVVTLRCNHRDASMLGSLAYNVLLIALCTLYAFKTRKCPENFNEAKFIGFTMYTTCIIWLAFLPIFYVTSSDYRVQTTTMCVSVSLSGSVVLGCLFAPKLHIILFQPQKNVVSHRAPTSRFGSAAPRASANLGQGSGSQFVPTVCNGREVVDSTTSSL
Structure (SMILES),melting point,Ki (rat mGlu2 receptor) [µM]
"O=C1CC(c2cccc(-n3ccnc3)c2)=Nc2cc(OCCO)c(C#Cc3ccccc3)cc2N1 [Example 42, 7-(2-Hydroxy-ethoxy)-4-(3-imidazol-1-yl-phenyl)-8-phenylethynyl-1,3-dihydro-benzo[b][1,4]diazepin-2-one]",224 to 227 °C,0.032
"O=C1CC(c2cccc(-n3ccnc3)c2)=Nc2cc(N3CCC(OCCO)CC3)c(-c3ccc(F)cc3)cc2N1 [Example 45, 8-(4-Fluoro-phenyl)-7-[4-(2-hydroxy-ethoxy)-piperidin-1-yl]-4-(3-imidazol-1-yl-phenyl)-1,3-dihydro-benzo[b][1,4]diazepin-2-one]",225 to 227 °C,0.1
"O=C1CC(c2cccc(-n3ccnc3)c2)=Nc2cc(O)c(-c3ccc(F)cc3)cc2N1 [Example 61, 8-(4-Fluoro-phenyl)-7-hydroxy-4-(3-imidazol-1-yl-phenyl)-1,3-dihydro-benzo[b][1,4]diazepin-2-one]",250 °C,0.007
"COc1cc2c(cc1-c1ccccc1F)NC(=O)CC(c1cccc(-n3ccnc3C)c1)=N2 [Example 68, 8-(2-Fluoro-phenyl)-7-methoxy-4-[3-(2-methyl-imidazol-1-yl)-phenyl]-1,3-dihydro-benzo[b][1,4]diazepin-2-one]",220 to 222 °C,0.138
COc1cc2c(cc1-c1ccccc1F)NC(=O)CC(c1ccc(C#N)s1)=N2 [Example 69],> 250 °C,0.168
"N#Cc1cccc(C2=Nc3cc(O)c(-c4cc(F)ccc4F)cc3NC(=O)C2)c1 [Example 90, 3-[7-(2,5-Difluoro-phenyl)-8-hydroxy-4-oxo-4,5-dihydro-3H-benzo[b][1,4]diazepin-2-yl]-benzonitrile]",> 250 °C,0.006

# Continued, values first:
melting point,Ki (rat mGlu2 receptor) [µM],Structure (SMILES)
234 °C (dec.),0.009,"O=C1CC(c2cccc(-n3ccnc3)c2)=Nc2cc(CO)c(C#Cc3ccc(F)cc3)cc2N1 [Example 37, 8-(4-Fluoro-phenylethynyl)-7-hydroxymethyl-4-(3-imidazol-1-yl-phenyl)-1,3-dihydro-benzo[b][1,4]diazepin-2-one]"
240 to 242 °C,0.033,"COc1cc2c(cc1-c1ccccc1F)NC(=O)CC(c1ccnc(C#N)c1)=N2 [Example 71, 4-[7-(2-Fluoro-phenyl)-8-methoxy-4-oxo-4,5-dihydro-3H-benzo[b][1,4]diazepin-2-yl)-pyridine-2-carbonitrile]"
> 250 °C,0.028,"O=C1CC(c2cccc(-n3ccnn3)c2)=Nc2cc(O)c(-c3ccccc3F)cc2N1 [Example 75, 8-(2-Fluoro-phenyl)-7-hydroxy-4-(3-[1,2,3]triazol-1-yl-phenyl)-1,3-dihydro-benzo[b][1,4]diazepin-2-one]"
> 250 °C,0.108,"Cc1nccn1-c1cccc(C2=Nc3cc(O)c(-c4ccccc4F)cc3NC(=O)C2)c1 [Example 79, 8-(2-Fluoro-phenyl)-7-hydroxy-4-[3-(2-methyl-imidazol-1-yl)-phenyl]-1,3-dihydro-benzo[b][1,4]diazepin-2-one]"
> 250 °C,0.021,"CSc1nccn1-c1cccc(C2=Nc3cc(O)c(-c4ccccc4F)cc3NC(=O)C2)c1 [Example 81, 8-(2-Fluoro-phenyl)-7-hydroxy-4-[3-(2-methylsulfanyl-imidazol-1-yl)-phenyl]-1,3-dihydro-benzo[b][1,4]diazepin-2-one]"
241 °C,0.012,"COc1cc2c(cc1-c1cc(F)ccc1F)NC(=O)CC(c1cccc(-n3ccnn3)c1)=N2 [Example 83, 8-(2,5-Difluoro-phenyl)-7-methoxy-4-(3-[1,2,3]triazol-1-yl-phenyl)-1,3-dihydro-benzo[b][1,4]diazepin-2-one]"
237 °C,0.015,"Cc1cc(-c2cccc(C3=Nc4cc(O)c(-c5ccccc5F)cc4NC(=O)C3)c2)on1 [Example 89, 8-(2-Fluoro-phenyl)-7-hydroxy-4-[3-(3-methyl-isoxazol-5-yl)-phenyl]-1,3-dihydro-benzo[b][1,4]diazepin-2-one]"
247 °C,0.013,"O=C1CC(c2cccc(-n3ccnc3)c2)=Nc2cc(O)c(C#Cc3ccc(F)cc3)cc2N1 [Example 91, 8-(4-Fluoro-phenylethynyl)-7-hydroxy-4-(3-imidazol-1-yl-phenyl)-1,3-dihydro-benzo[b][1,4]diazepin-2-one]"
